Read-outs that look alike come from different tables or passages of the source.
Key:
MCT8 [1] = target: T1, MCT8 (Rattus norvegicus, UniProt Q8K1P8, G227D/I169T/S199P/T171I); experiment: Transport (uptake) of radioactive ligands by MCT8 expressed in X. laevis oocytes; assay type: cell-based; set-up: the stop codon of MCT8 was removed by performing PCR using the same sense primer as above; expressed in transfected cells; host or cells: Xenopus laevis oocytes injected with cRNA transcribed from pGEM-HeJuel; details: 10 nM iodothyronines or amino acids; MCT8 cRNA-injected vs uninjected oocytes
Experimental: Xenopus oocytes were isolated and injected with 4.6 ng rat MCTS cRNA. After 3 days, groups of 10 injected or uninjected oocytes were incubated for 60 mm at 25 C with 10 nM radioactive iodothyronines in 0.1 ml medium. Uptake of iodothyronines was determined as previously described (18).
(§1) Oocytes were isolated and allowed to recover overnight at 18 C in modified Barth's solution containing 20 IU/ml penicillin and 20 gg/ml streptomycin as described before (23). […] Uninjected or water injected oocytes were used as controls.
(§2) Transport measurements in oocytes—Oocytes were washed and preincubated at 18 C in standard uptake solution (100 mM NaCl, 2 mM KCl, 1 mM CaCl2, 1 mM MgCl2, 10 mM HEPES, and 10 mM Tris, pH 7.5). Usually, transport was tested by incubation of groups of 5-10 oocytes for 2-60 mm at 25 C with 10 nM [1251]iodothyronines or 10 μM [3H]amino acids in 0.1 ml standard uptake solution. The possible Na^+ dependence of transport was tested by preincubation and incubation in Na^+-free uptake solution in which NaCl was replaced by choline chloride. The influence of the temperature on the uptake rate was tested by the incubation of oocytes with uptake solutions at different temperatures between 4 and 37 C. […] The incubation was stopped by aspiration of the medium, and oocytes were washed 4 times at 4 C with standard uptake solution containing 0.1% BSA.

MCT8 [2] = target: T2, MCT8 (Rattus norvegicus, UniProt Q8K1P8); experiment: Inhibition of uptake of labeled T4 and T3 in MCT8 cRNA-injected oocytes by putative competitors; assay type: cell-based; details: labeled T3 10 nm, MCT8 cRNA-injected oocytes
T2 construct: the stop codon of MCT8 was removed by performing PCR using the same sense primer as above; expressed in transfected cells; host or cells: Xenopus laevis oocytes injected with cRNA transcribed from pGEM-HeJuel
Experimental: as §1
as §2, with “Usually, transport was tested by incubation of groups of 5-10 oocytes for 2-60 mm at 25 C with 10 nM [1251]iodothyronines or 10 μM [3H]amino acids in 0.1 ml standard uptake solution.” left out

MCT8 [3] = target: T1, MCT8; experiment: as above; assay type: cell-based; set-up: the stop codon of MCT8 was removed by performing PCR using the same sense primer as above; expressed in transfected cells; host or cells: Xenopus laevis oocytes injected with cRNA transcribed from pGEM-HeJuel; details: for Inhibition of labeled T4 and T3 uptake by MCT8 (in words): unlabeled competitor, taurocholate and probenecid data not shown
Experimental: as §1
as §2, with “Usually, transport was tested by incubation of groups of 5-10 oocytes for 2-60 mm at 25 C with 10 nM [1251]iodothyronines or 10 μM [3H]amino acids in 0.1 ml standard uptake solution.” left out

rat oatp1 = target: T3, rat oatp1 (Rattus norvegicus, UniProt P46720); details: literature (10); read-out: Apparent Km values for rat oatp1; cited from earlier work
T3 sequence (P46720 1-670): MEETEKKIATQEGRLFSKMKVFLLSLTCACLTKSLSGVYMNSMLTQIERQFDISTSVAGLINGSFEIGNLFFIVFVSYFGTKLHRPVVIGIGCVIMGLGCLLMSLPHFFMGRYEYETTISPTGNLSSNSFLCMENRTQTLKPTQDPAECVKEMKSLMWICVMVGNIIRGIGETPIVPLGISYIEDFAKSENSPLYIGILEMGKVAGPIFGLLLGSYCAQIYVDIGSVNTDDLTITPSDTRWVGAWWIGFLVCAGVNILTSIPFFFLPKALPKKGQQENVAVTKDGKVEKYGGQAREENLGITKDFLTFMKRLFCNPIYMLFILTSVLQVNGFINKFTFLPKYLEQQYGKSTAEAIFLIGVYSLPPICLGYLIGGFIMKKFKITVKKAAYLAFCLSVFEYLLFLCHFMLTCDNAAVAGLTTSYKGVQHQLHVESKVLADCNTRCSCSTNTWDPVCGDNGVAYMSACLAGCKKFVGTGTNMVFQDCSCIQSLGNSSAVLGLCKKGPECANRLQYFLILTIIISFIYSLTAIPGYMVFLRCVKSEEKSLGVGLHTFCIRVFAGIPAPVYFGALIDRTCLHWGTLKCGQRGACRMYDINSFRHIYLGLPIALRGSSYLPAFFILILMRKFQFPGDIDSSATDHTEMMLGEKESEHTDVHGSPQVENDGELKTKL

MCT8 [4] = target: T1, MCT8; experiment: Transport kinetics of MCT8-mediated iodothyronine uptake in oocytes (Michaelis-Menten); set-up: dose or concentration left out as unconfirmed; details: net transport
Experimental: Apparent Km values were calculated by fitting the plot of uptake rate (v) versus ligand concentration (5) to the Michaelis Menten equation: v=Vmax/(1+Km/S), wherein Vmax is the maximum uptake rate, and Km the Michaelis constant. Calculations were performed using the Slide Write Plus program version 5.01 (Advanced Graphics Software).

MCT8 [5] = target: T1, MCT8; experiment: Uptake and metabolism (sulfation) of rT3 in MCT8 cRNA-injected oocytes; assay type: cell-based; set-up: the stop codon of MCT8 was removed by performing PCR using the same sense primer as above; expressed in transfected cells; host or cells: Xenopus laevis oocytes injected with cRNA transcribed from pGEM-HeJuel; details: 10 nM rT3, 2-60 min, 25 C
Experimental: Analysis of rT3 metabolism in oocytes—Groups of 10 oocytes were incubated for 2-60 mm at 25 C with 10 nM ['25IIrTa. After incubation, medium was collected, and 2 groups of 5 oocytes were counted separately and homogenized in 0.1 ml 0.1 M NaOH as described before (25). Lysates were cleared by centrifugation. Lysates (in duplicate) and incubation media were acidified with 0.1 M HCl and analyzed by Sephadex LH-20 chromatography (21). The different products were successively eluted with 0.1 M HCl (iodide), water (conjugates), and 1% NH4OH in ethanol (iodothyronines).
Metabolism of rT3—Previous studies have shown that X. laevis oocytes actively metabolize rT3 by sulfation. Since sulfotransferases are located intracellularly, we have used this property to investigate rT3 internalization by oocytes. […] At several time points, uninjected and MCT8 cRNA-injected oocytes are homogenized, and the homogenates and medium samples are analyzed for rT3 and rT3 sulfate (rT3S) content. It is shown that already after 2 mm of incubation, rT3S is formed intracellularly in the MCT8 cRNA-injected oocytes. After 10 mm of incubation, release of rT3S into the medium is observed. The production rate of rT3S is much higher in MCT8 cRNA-injected oocytes than in uninjected cells.

rat MCT1 = target: T4, rat MCT1 (Rattus norvegicus, UniProt P53987); details: data not shown
T4 sequence (P53987 1-494): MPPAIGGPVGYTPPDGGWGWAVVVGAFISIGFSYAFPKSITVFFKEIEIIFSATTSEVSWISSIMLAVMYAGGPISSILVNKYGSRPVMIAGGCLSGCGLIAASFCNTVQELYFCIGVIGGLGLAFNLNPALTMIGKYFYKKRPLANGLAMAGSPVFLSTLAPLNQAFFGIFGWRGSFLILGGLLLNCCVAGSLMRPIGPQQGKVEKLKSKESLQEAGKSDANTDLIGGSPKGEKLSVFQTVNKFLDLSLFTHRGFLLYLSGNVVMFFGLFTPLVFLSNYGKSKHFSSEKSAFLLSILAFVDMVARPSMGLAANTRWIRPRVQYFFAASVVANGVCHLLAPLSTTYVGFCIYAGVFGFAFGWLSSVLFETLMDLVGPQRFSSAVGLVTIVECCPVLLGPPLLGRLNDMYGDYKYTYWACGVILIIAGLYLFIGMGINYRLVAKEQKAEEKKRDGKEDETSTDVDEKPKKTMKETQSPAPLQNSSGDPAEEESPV

[6] = labeled T4 10 nm, inhibitor 100 μM, MCT8 cRNA-injected oocytes
[7] = labeled T4 10 nm, inhibitor 10 μM, MCT8 cRNA-injected oocytes

T2 sequence (Q8K1P8 whole entry I169T/T171I/S199P/G227D): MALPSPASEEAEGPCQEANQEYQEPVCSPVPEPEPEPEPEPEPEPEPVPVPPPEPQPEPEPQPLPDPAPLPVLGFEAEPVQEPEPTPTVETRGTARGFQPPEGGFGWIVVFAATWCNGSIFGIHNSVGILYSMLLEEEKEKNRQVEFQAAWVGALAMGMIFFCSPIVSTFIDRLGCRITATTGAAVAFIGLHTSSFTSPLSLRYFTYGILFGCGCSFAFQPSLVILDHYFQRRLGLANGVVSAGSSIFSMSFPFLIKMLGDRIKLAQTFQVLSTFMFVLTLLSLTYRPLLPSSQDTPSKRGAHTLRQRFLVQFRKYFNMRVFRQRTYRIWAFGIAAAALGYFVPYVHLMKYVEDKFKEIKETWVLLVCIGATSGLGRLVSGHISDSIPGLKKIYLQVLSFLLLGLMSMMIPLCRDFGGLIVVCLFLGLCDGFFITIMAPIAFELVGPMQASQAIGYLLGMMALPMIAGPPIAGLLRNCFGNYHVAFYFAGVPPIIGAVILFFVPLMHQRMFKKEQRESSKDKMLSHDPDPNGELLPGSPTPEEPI
T1 sequence (Q8K1P8 whole entry I169T/T171I/S199P/G227D): as above

Row | Compound | Substrate specificity: transport by MCT8 (in words) (MCT8 [1]) | Inhibition of labeled T4 and T3 uptake by MCT8 (in words) (MCT8 [3]) | other results
1 | N[C@@H](Cc1ccc(Oc2ccc(O)c(I)c2)c(I)c1)C(=O)O [T2, 3,3′-diiodothyronine] | rapid uptake |  | 
2 | O=C1OC(c2ccc(O)c(S(=O)(=O)O)c2)(c2ccc(O)c(S(=O)(=O)O)c2)c2c(Br)c(Br)c(Br)c(Br)c21 [BSP, bromosulfophthalein] |  | potent inhibitor | % inhibition ± SEM of uptake of T3 (MCT8 [2]; inhibitor 100 μM): 81 ± 1%; Km (rat oatp1): 1.5 µM; % inhibition ± SEM of uptake of T4 (MCT8 [3]; [6]): 94 ± 2%
3 | O=C(CBr)N[C@@H](Cc1cc(I)c(Oc2ccc(O)c(I)c2)c(I)c1)C(=O)O [BrAcT3, N-bromoacetyl-3,3′,5-triiodothyronine] |  | potently inhibited | inhibition at 10 µM (MCT8 [3]; labeled T4 10 nm, inhibitor 10 μM, MCT8 cRNA-injected oocytes, read-out: % inhibition ± SEM of uptake of T4): 90 ± 3%; inhibition at 10 µM (MCT8 [3]; read-out: % inhibition ± SEM of uptake of T3): 67 ± 1%
4 | N[C@H](Cc1cc(I)c(Oc2ccc(O)c(I)c2)c(I)c1)C(=O)O [D-T3] |  | potently inhibited | % inhibition ± SEM of uptake of T3 (MCT8 [2]; inhibitor 10 μM): 24 ± 5%; % inhibition ± SEM of uptake of T4 (MCT8 [3]; [7]): 72 ± 3%
5 | NS(=O)(=O)O [T4NS] | not transported |  | 
6 | N[C@@H](Cc1ccc(Oc2cc(I)c(O)c(I)c2)c(I)c1)C(=O)O [rT3, 3,3′,5′-triiodothyronine] | rapid uptake |  | Saturability of transport by MCT8 (MCT8 [4]): saturable; Production rate of rT3S in MCT8 cRNA-injected oocytes versus uninjected cells (MCT8 [5]): much higher
7 | CCCN(CCC)S(=O)(=O)c1ccc(C(=O)O)cc1 [probenecid] |  | weak effects | 
8 | N[C@@H](Cc1cc(I)c(Oc2cc(I)c(OS(=O)(=O)O)c(I)c2)c(I)c1)C(=O)O [T4S] | not transported |  | 

Continued, in another order:

Row | Substrate specificity: transport by MCT8 (in words) (MCT8 [1]) | Inhibition of labeled T4 and T3 uptake by MCT8 (in words) (MCT8 [3]) | Compound | other results
9 | not transported |  | N[C@@H](Cc1ccccc1)C(=O)O [Phe] | 
10 | not transported | hardly affected | N[C@@H](Cc1c[nH]c2ccccc12)C(=O)O [Trp] | % inhibition ± SEM of uptake of T3 (MCT8 [2]; inhibitor 100 μM): 0 ± 7%; % inhibition ± SEM of uptake of T4 (MCT8 [3]; [6]): 22 ± 6%
11 | not transported |  | CC(C)C[C@H](N)C(=O)O [Leu] | 
12 | not transported | hardly affected | N[C@@H](Cc1ccc(O)cc1)C(=O)O [Tyr] | % inhibition ± SEM of uptake of T3 (MCT8 [2]; inhibitor 100 μM): 0 ± 9%; % inhibition ± SEM of uptake of T4 (MCT8 [3]; [6]): 37 ± 6%
13 |  | potently inhibited | N[C@H](Cc1cc(I)c(Oc2cc(I)c(O)c(I)c2)c(I)c1)C(=O)O [D-T4] | % inhibition ± SEM of uptake of T3 (MCT8 [2]; inhibitor 10 μM): 21 ± 5%; % inhibition ± SEM of uptake of T4 (MCT8 [3]; [7]): 76 ± 7%
14 | unable to demonstrate any transport |  | CC(O)C(=O)O (centres unmarked) [lactate] | Transport in rat MCT1 cRNA-injected oocytes compared to control oocytes (in words) (rat MCT1): greatly stimulated
